Tests used:
Rattus norvegicus [1] = test: Neurotoxicity in Rattus norvegicus Wistar albino (rat) assessed as increase in brain total nitric oxide level measured per gram of tissue at 20 mg/kg, administered as intragastrically after 21 days by Griess assay (reference value: 144.8 +/- 16.3 umol); assay type: toxicity, organism-based; parameters: dose 20 mg/kg, route intragastric; details: in vivo, po, 504 h
Rattus norvegicus [2] = test: Neurotoxicity in Rattus norvegicus Wistar albino (rat) assessed as increase in brain ascorbic acid level measured per gram of tissue at 20 mg/kg, administered as intragastrically after 21 days by spectrphotometric analysis (reference value: 3.7 +/- 0.7 mg); assay type: toxicity, organism-based; parameters: dose 20 mg/kg, route intragastric; details: in vivo, po, 504 h
Rattus norvegicus [3] = test: Neurotoxicity in Rattus norvegicus Wistar albino (rat) assessed as increase in brain glutathione level measured per gram of tissue at 20 mg/kg, administered as intragastrically after 21 days by Ellman's method (reference value: 3.5 +/- 1.0 umol); assay type: toxicity, organism-based; parameters: dose 20 mg/kg, route intragastric; details: in vivo, po, 504 h
Rattus norvegicus [4] = test: Neurotoxicity in Rattus norvegicus Wistar albino (rat) assessed as increase in brain malondialdehyde level measured per gram of tissue at 20 mg/kg, administered as intragastrically after 21 days by TBARS assay (reference value: 233.9 +/- 48.6 nmol); assay type: toxicity, organism-based; parameters: dose 20 mg/kg, route intragastric; details: in vivo, po, 504 h
Rattus norvegicus [5] = test: Neuroprotective activity in streptozotocin-induced Rattus norvegicus Wistar albino (rat) diabetic model assessed as increase in brain total nitric oxide level measured per gram of tissue at 20 mg/kg, administered as intragastrically after 21 days by Griess assay (reference value: 100.6 +/- 10.7 umol); assay type: functional; details: route intragastric
Rattus norvegicus [6] = test: Neuroprotective activity in streptozotocin-induced Rattus norvegicus Wistar albino (rat) diabetic model assessed as increase in brain ascorbic acid level measured per gram of tissue at 20 mg/kg, administered as intragastrically after 21 days by spectrphotometric analysis (reference value: 3.7 +/- 0.4 mg); assay type: functional; details: route intragastric
Rattus norvegicus [7] = test: Neuroprotective activity in streptozotocin-induced Rattus norvegicus Wistar albino (rat) diabetic model assessed as increase in brain glutathione level measured per gram of tissue at 20 mg/kg, administered as intragastrically after 21 days by Ellman's method (reference value: 3 +/- 0.5 umol); assay type: functional; details: route intragastric
Rattus norvegicus [8] = test: Neuroprotective activity in streptozotocin-induced Rattus norvegicus Wistar albino (rat) diabetic model assessed as decrease in brain malondialdehyde level measured per gram of tissue at 20 mg/kg, administered as intragastrically after 21 days by TBARS assay (reference value: 447 +/- 61.9 nmol); assay type: functional; details: route intragastric

SMILES: O=C1O[C@H]([C@@H](O)CO)C(O)=C1O [ASCORBIC ACID]
- Activity (Rattus norvegicus [1]): 115.2 µmol
- Activity (Rattus norvegicus [2]): 5.2 mg
- Activity (Rattus norvegicus [3]): 5.4 µmol
- Activity (Rattus norvegicus [4]): 249.2 nmol
- Activity (Rattus norvegicus [5]): 146.1 µmol
- Activity (Rattus norvegicus [6]): 4.26 mg
- Activity (Rattus norvegicus [7]): 3.1 µmol
- Activity (Rattus norvegicus [8]): 204.2 nmol

From ChEMBL document CHEMBL3045177, “The effect of ascorbic acid supplementation on brain oxidative events in experimental diabetes” (Med Chem Res, 2010)
